Assays:
[1] = system: EFO-27 human ovarian cancer cells (LHRH binding sites); assay: Direct binding/uptake of 177Lu-labeled LHRH-II analogs to EFO-27 cells; details: 177Lu-labeled, 4° C., 1 h, single concentration
Method: All reagents and chemicals were obtained from Sigma unless otherwise specified. LHRH analogs and ^177Lu-LHRH-II analogs were prepared by in-house chemists, as described elsewhere in the application. ^177Lu-LHRH-II analogs were not HPLC purified, as they had been prepared using formulation conditions that yielded high RCP without the need for purification. […] The HPLC-purified material was taken in a stabilizing buffer containing 5% lactose, 0.1% L-cysteine hydrochloride and 800 KIU/mL aprotinin and received as a lyophilized product and stored at −70° C. This was reconstituted in distilled water, aliquoted and stored at −70° C. The radioactivity was determined using Microplate Scintillation counter (Wallac Microbeta Trilux).
For the binding assay, EFO-27 cells were seeded onto 96-well clear flat-bottom tissue-culture-treated plates at 15,000/well density in the growth medium and used for assay on day 2 post-seeding. Cells were routinely checked for confluence and contamination and cell count was done occasionally to ensure consistency in cell numbers.
Direct Binding: Direct binding studies were carried out by incubating appropriate ^177Lu-labeled compounds with EFO-27 cells at 4° C. for 1 h followed by washing off the unbound radioactivity. Non-specific binding was determined by incubating the ^177Lu-LHRH-II analogs in the presence of a large excess (30 uM) of cold (unlabeled) LHRH-II analogs. A 96-well plate format was used.

EFO-27 cells = assay: Internalization/efflux studies in EFO-27 cells; format: cell-based, human
Method: (§1) Internalization/Efflux Studies: The internalization and efflux studies were carried out following the general procedure. Basically, ^177Lu-LHRH II or ^125I-LHRH II ([^125I-Tyr^8]BRU-2477) (75 uL, 3.0 μCi/mL) was added to the EFO-27 or PC-3 cells. The cells were incubated for 40 min at 37° C. The unbound radioactivity was washed off (4×). Following addition of fresh medium, the cells were further incubated for up to 2 h. At various time points (15, 30, 60 & 120 min) the distribution of radioactivity (membrane-bound, internalized, and efflux) was determined
The internalization and efflux of several Lu-177 labeled LHRH II analogs in EFO-27 cells have been investigated. Basically, following pre-incubation of cells with ^177Lu-LHRH II samples, the binding buffer containing the ^177Lu was replaced with fresh media without complex. The extent of initial internalization (T=0), the amount of radioactive material that remained internalized and the efflux at 0-120 min were determined. The results are shown in FIGS. 21a-f and 22a-c and in Table 25.

[2] = system: PC-3 (human prostate cancer) cells; assay: Internalization/efflux studies in PC-3 cells; format: cell-based
Method: as §1
To determine whether prostate cancer cells (PC-3) behave differently from EFO-27 cells, internalization and efflux studies were carried out with ^177Lu-BRU-2813 using both cell lines.

[3] = mouse, in vivo, 10 min
Method: In addition, at both 2 and 10 min post injection, blood samples from two mice were collected. The collected blood samples at each time point were pooled and treated with two times their volume with ice-cooled methanol, and then the mixture was centrifuged at 4° C. for 20 min at 20,000×g to precipitate proteins. The supernatant was collected and the organic solvent in the solution was removed by speed-vacuum for 60 min. The concentrated supernatant was assayed by HPLC.

in vitro = in vitro ADME, mouse
Method: Livers from 10 female Tac:NCr:Foxn1^nu/nu mice were excised, rinsed with ice cold PBS (no Ca^++ or Mg^++) and weighed. The tissues were minced with scissors in Petri dishes on ice with Tris buffered saline (Pierce BupH™ Tris buffered saline packs, #28376; 25 mM Tris, 150 mM NaCl, pH 7.2). After mincing, the tissues were dounce homogenized, and the total volume adjusted with ice cold Tris buffer (4 mL for every gram of excised tissue). The homogenate was centrifuged at ˜4000×g for 10 min at 4° C. The supernatants were aliquoted into Eppendorf tubes on ice (200 and 100 μl volumes) and stored at −80° C. Kidney homogenates were similarly prepared. […] The mixture was centrifuged at 4° C. for 20 min at 20,000×g to precipitate the protein; 10 μL (˜7.6 μCi) of the supernatant was injected into the HPLC for the analysis. […] Peaks at these retention times were also observed in the in vivo plasma sample (FIG. 1). […] The final concentration for the Lu-BRU-2813 in the homogenate sample solution was ˜0.4 mg/mL. After 60 min incubation, the sample was immediately cooled on ice, and then 0.48 mL of ice-cooled methanol was added. The sample was centrifuged at 4° C. for 20 min at 20,000×g to precipitate the protein. The supernatant was collected, concentrated using a speed vacuum to remove organic solvents, and then analyzed by LC/MS.

[4] = In vitro metabolic stability in mouse liver homogenate at 37° C.; format: in vitro ADME
Method: Livers from 10 female Tac:NCr:Foxn1^nu/nu mice were excised, rinsed with ice cold PBS (no Ca^++ or Mg^++) and weighed. The tissues were minced with scissors in Petri dishes on ice with Tris buffered saline (Pierce BupH™ Tris buffered saline packs, #28376; 25 mM Tris, 150 mM NaCl, pH 7.2). After mincing, the tissues were dounce homogenized, and the total volume adjusted with ice cold Tris buffer (4 mL for every gram of excised tissue). The homogenate was centrifuged at ˜4000×g for 10 min at 4° C. The supernatants were aliquoted into Eppendorf tubes on ice (200 and 100 μl volumes) and stored at −80° C. Kidney homogenates were similarly prepared. […] The mixture was centrifuged at 4° C. for 20 min at 20,000×g to precipitate the protein; 10 μL (˜7.6 μCi) of the supernatant was injected into the HPLC for the analysis. […] Peaks at these retention times were also observed in the in vivo plasma sample (FIG. 1). […] After 0 and 60 min, the sample was removed from the incubator, immediately cooled on ice and 2 μL of 10 mM EDTA and 0.2 mL of ice-cooled MeOH were added, mixing after each addition. The proteins in the sample were separated by centrifugation at 14,000 rpm for 20 min. The supernatant was harvested and, in the samples spiked with the ^177Lu-analog, the radioactivity was measured using a Capintec dose calibrator to determine recovery. The sample was then analyzed by HPLC. […] After 0 and 60 min, the sample was removed from the incubator, immediately cooled on ice and 2 μL of 10 mM EDTA and 0.24 mL of ice-cooled methanol was added, mixing after each addition. The proteins in the sample were separated by centrifugation at 14,000 rpm for 20 min. The supernatant was collected and analyzed by LC/MS as described earlier herein.

[5] = female, Tac:NCr:Foxn1nu/nu, mouse, tissue homogenate, pH 7.2

What does the source list for `N=C(N)NCCC[C@H](NC(=O)[C@@H](Cc1ccc2ccccc2c1)NC(=O)CN1CCN(CC(=O)O)CCN(CC(=O)O)CCN(CC(=O)O)CC1)C(=O)N[C@@H](Cc1c[nH]c2ccccc12)C(=O)N[C@@H](CO)C(=O)N[C@@H](Cc1cnc[nH]1)C(=O)N[C@H](CCCNC(=N)N)C(=O)N[C@@H](Cc1c[nH]c2ccccc12)C(=O)N[C@@H](Cc1ccc(C(=O)c2ccccc2)cc1)C(=O)N1CCC[C@H]1C(=O)NNC(N)=O` [177Lu-BRU-2813, Lu-DOTA-Dnal2-Arg-Trp-Ser-His-Darg-Trp-Bpa4-Pro-azaGly-NH2, metal not drawn]?
direct binding / uptake [1]: 19%; direct binding / uptake ([1]; listed as Lu-BRU-2813): 18.8%; cell surface (membrane) binding (EFO-27 cells; % of the total bound): 60-65%; initial internalization (EFO-27 cells; % of total bound (cell-associated) radioactivity, T=0): 27%; efflux (EFO-27 cells; in 1 h): 75-80%; initial internalization ([2]; % of cell-associated counts): 25%; cell surface activity ([2]; % of the total bound): 60-65%; efflux ([2]; in 1 h): 75-80%; radioactivity remaining in the plasma still in parent form [3]: 66%; metabolism in kidney homogenate (in vitro): Extensive metabolism was seen; remaining at 10 min, 2.3 mCi/mL (in vitro; female, Tac:NCr:Foxn1nu/nu, mouse, other tissue homogenate, pH 7.2): 2.4%; metabolism in liver homogenate [4]: Extensive metabolism was seen; remaining at 10 min, 2.3 mCi/mL [4, 5]: 18.3%; remaining at 1 h, 0.3 mg/mL [4, 5]: 12.4 ± 8.7%
